Assay results as given in ChEMBL document CHEMBL1147312, “1-Aryl Tetralin Lignans from Larrea tridentata” (J Nat Prod, 1989).
Activity calls are given as the source filed them. No cut-off for these calls is given here.

Test system: Rattus norvegicus
Experiment: Anti-implantation activity in po dosed rat
Assay type: functional, organism-based

| Compound | Activity |
| --- | --- |
| C[C@H]1[C@H](c2ccc(O)cc2)c2cc(O)c(O)cc2C[C@H]1C | Active |
| C[C@H]1[C@H](c2ccc(O)c(O)c2)c2cc(O)c(O)cc2C[C@H]1C | inactive |
